What was measured:
[1] = target: T1, PSA (Homo sapiens, UniProt P07288); assay: Optical (fluorogenic) assay of peptide substrate cleavage by PSA; format: biochemical; details: fluorogenic AMC-labelled substrate, 0.4 mM in buffer A
T1 construct: purchased Scripps Laboratories
Method: Serial dilution of PSA (reagent #5)+substrate
The desired clinical urine samples were thawed at room temperature, gently vortexed, and briefly centrifuged (<20 seconds) to accumulate sample at the bottom of the tube. Each 50 μL sample was transferred via pipette to the 96-well microplate. The PSA standards (20 μL) were prepared and loaded in the same way. A multichannel pipette was used to transfer the substrate (150 μL) one column at a time and the start time recorded. Once the entire plate was loaded, it was inserted into the microplate reader and analyzed every 10 min. for 2-12 hrs.
Serial dilution of AMC (reagent #6) to determine linear fluorescence range: Reagent #6 (35.9 μL) was diluted to 2.0 mL buffer A to give a concentration of 0.4 mM. A 1:2 dilution was performed to give a final concentration range of 0.4 mM-0.024 uM. This was loaded into a 96-well microplate in duplicate and scanned one time. Serial dilution of PSA (reagent #5)+substrate: 20 μL of each standard PSA standard solution (see general procedure for protein dilution above) was loaded in duplicate into a 96-well microplate followed by 150 μL of peptide substrate in buffer A (see general procedure above) and scanned for at least 3 hrs. Serial dilution of α-Chymotrypsin (reagent #8)+substrate: Same as experiment 2 but with reagent #8. […]

[2] = tested on: esterases; assay: Sacrificial ester control for esterases in a urine sample with peptide substrate; format: biochemical; details: urine sample + peptide substrate 0.4 mM, with and without ester 40 mM; single experiment
Method: This was tested by running a urine sample (+peptide substrate; 0.4 mM) with and without a “sacrificial ester” (alanine methyl ester; 40 mM). The idea is that if there are esterases in the sample, adding a relatively high concentration of ester will prevent them from cleaving the peptide substrate and we should therefore see a higher turnover of substrate.

T1 sequence (P07288 25-261): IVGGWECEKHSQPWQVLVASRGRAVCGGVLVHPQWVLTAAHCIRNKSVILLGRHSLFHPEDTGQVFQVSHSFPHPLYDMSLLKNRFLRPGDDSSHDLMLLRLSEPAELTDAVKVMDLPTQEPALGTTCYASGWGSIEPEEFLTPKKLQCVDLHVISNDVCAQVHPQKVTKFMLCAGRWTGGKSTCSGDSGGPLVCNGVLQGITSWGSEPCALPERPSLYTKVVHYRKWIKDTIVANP

Row | Molecule | cleavage of substrate by PSA [1] | effect of sacrificial ester on turnover of peptide substrate [2]
1 | Mor-HSSK-Hic-Q-AMC | show cleavage by PSA | 
2 | COC(=O)[C@H](C)N [alanine methyl ester] |  | no difference between the sample run with ester and that run without ester
3 | Mor-HSSK-Hiv-Q-AMC | show cleavage by PSA | 

From US20140134658A1, “PSA ENZYMATIC ACTIVITY: A NEW BIOMARKER FOR ASSESSING PROSTATE CANCER AGGRESSIVENESS” (NORTHWESTERN UNIVERSITY, AN ILLINOIS NOT FOR PROFIT …, priority 2010, published 2014)
